In PMC8126888 (RSC Medicinal Chemistry, 2020):
Read-outs that look alike come from different tables or passages of the source.

Columns and labels:
[1] = in vitro; details: PAMPA
[2] = test system: Leishmania infantum MHOM/MA(BE)/67/ITMAP263 intracellular amastigotes; assay: microbe, parasite or virus in culture; details: Macrophage, in Mus musculus
[3] = in vitro; details: human, microsomes, pH 7.4, HLM CLint, human liver microsomes
[4] = in vitro; details: mouse, microsomes, pH 7.4, MLM CLint, mouse liver microsomes
[5] = test system: Trypanosoma cruzi, Tulahuen CL2, beta-galactosidase strain; assay: microbe, parasite or virus in culture; details: MRC5, read-out: T. cruzi Tulahuen C4 (LacZ) IC50
[6] = in vitro; details: human
[7] = physchem; details: HPLC, Ascentis Express RP Amide column, pH 7.4, eLogD, experimental
[8] = test system: primary peritoneal mouse macrophages (PMM); assay: cells; details: Macrophage, read-out: PMM IC50
[9] = read-out: L. Inf. pIC50, from L. infantum intracellular amastigote IC50 (converted)
[10] = read-out: L. infantum MHOM/MA(BE)/67/ITMAP263 intracellular amastigotes IC50, intracellular amastigotes

Row | Compound | Papp [1] [×10⁻⁶ cm/s] | IC50 [2, 9] [µM] | IC50 [2, 10] [µM] | microsomal CLint at 0.5 μM [3] [µL/min/mg] | microsomal CLint at 0.5 μM [4] [µL/min/mg] | IC50 [5] [µM] | CC50 at 3 days [6] [µM] | chromatographic logD [7] | IC50 [8] [µM]
1 | O=S(=O)(NC(CO)Cc1ccccc1)c1ccccc1Br (centres unmarked) [DNDI0003369449] | 17.4 | > 64 | > 64 | 244 | 1370 | 33.4 | > 64 | 3 | > 64
2 | CN(C)CCOc1ccc(F)cc1S(=O)(=O)N(Cc1ccc(F)cc1)Cc1ccc(F)cc1 [DNDI0003371161] | 0.06 | 2.19 | 2.19 | 214 | 845 | 2.17 | 7.62 | 4.9 | 8
3 | O=S(=O)(NCc1ccc(F)cc1)c1cccnc1OCc1ccccc1 [DNDI0003369120] | 12.8 | 8.51 | 8.42 | 2740 | 2750 | 12.7 | 20.2 | 4 | 32
4 | COC(=O)[C@H](CO)NS(=O)(=O)c1cc(Cl)ccc1OC [DNDI0003369004] | 9.07 | > 64 | > 64 | 112 | 230 | > 64 | > 64 | 1.8 | > 64
5 | COc1ccc(CN2CCOCC2)cc1S(=O)(=O)N(Cc1ccc(F)cc1)Cc1ccc(F)cc1 [DNDI0003370082] | 0.74 | 0.525 | 0.52 | 49 | 3200 | 1.56 | > 64 | – | > 64
6 | COc1ncccc1S(=O)(=O)N(Cc1ccc(F)cc1)Cc1ccccn1 [DNDI0003370084] | 27.4 | 7.41 | 7.39 | 696 | 4620 | 33.6 | > 64 | 3.5 | > 64
7 | COc1ccc(OC)c(S(=O)(=O)N(CCn2nc(C)cc2C)Cc2ccccc2)c1 [DNDI0003367308] | 10.9 | 6.17 | 6.23 | 2270 | 3100 | 8.09 | 51 | 4.1 | > 64
8 | CN(C)CCN(Cc1ccccc1)S(=O)(=O)c1ccc(NC(=O)CCCO)cc1 [DNDI0003368293] | 0.21 | > 64 | > 64 | < 23 | – | > 64 | > 64 | 2.9 | > 64
9 | O=S(=O)(c1cc(F)ccc1F)N(Cc1ccccc1)C(CO)CO [DNDI0003369448] | 11.2 | 57.5 | 57 | < 23 | 97 | 31.6 | > 64 | 2.9 | > 64
10 | COc1ccc(S(=O)(=O)N(Cc2ccccc2)Cc2ccccc2)cc1 [DNDI0003367309] | 1 | 45.7 | 45.4 | 184 | 2410 | > 64 | > 64 | – | > 64
11 | CNC(=O)c1ccc(OC)c(S(=O)(=O)N(Cc2ccccc2)Cc2ccccc2)c1 [DNDI0003368298] | 10.4 | 0.708 | 0.71 | 316 | – | > 64 | 4.87 | 3.8 | 50.8
12 | COc1ccc(C(=O)N2CCCC2)cc1S(=O)(=O)N(Cc1ccccc1)Cc1ccccc1 [DNDI0003368297] | 4.91 | 0.49 | 0.48 | 796 | – | > 64 | > 64 | 4.1 | 32
13 | O=S(=O)(c1cc(F)ccc1F)N(CCO)Cc1ccccc1 [DNDI0003368289] | 15.7 | > 64 | > 64 | < 23 | – | 47.2 | > 64 | 3.2 | > 64
14 | COc1ccc(OC)c(S(=O)(=O)N(Cc2ccc(F)cc2)Cc2ccccn2)c1 [DNDI0003368394] | 60.1 | 0.977 | 0.97 | 151 | 344 | 20.9 | > 64 | 2.7 | > 64
15 | O=S(=O)(NCc1ccc(F)cc1)c1cccnc1NCCN1CCOCC1 [DNDI0003369121] | 1.85 | > 64 | > 64 | 1850 | 1950 | > 64 | > 64 | 3.1 | > 64
16 | COc1ccc(Cl)cc1S(=O)(=O)N(CC(=O)c1ccc(F)cc1)Cc1ccccc1 [DNDI0003371155] | 0.24 | 41.7 | 41.8 | – | 1900 | > 64 | > 64 | 4.8 | 45.2
17 | CCOCCOc1ncccc1S(=O)(=O)NCc1ccc(F)cc1 [DNDI0003369119] | 23.8 | 33.1 | 33.3 | 2210 | 1530 | > 64 | > 64 | 3.2 | > 64
18 | O=S(=O)(NC(CO)Cc1ccccc1)c1cc(F)ccc1F (centres unmarked) [DNDI0003368459] | 10.6 | > 64 | > 64 | 42 | 274 | > 64 | > 64 | 2.8 | > 64
19 | CCCCOc1ncccc1S(=O)(=O)NCc1ccc(F)cc1 [DNDI0003368396] | 14.9 | 8.71 | 8.73 | 1650 | – | 29.6 | > 64 | 3.8 | > 64
20 | CN(C)CCN(Cc1ccccc1)S(=O)(=O)c1ccc(N2C(=O)CCC2=O)cc1 [DNDI0003368291] | 1.64 | > 64 | > 64 | < 23 | – | > 64 | > 64 | 2.5 | > 64
21 | COc1ccc(OC)c(S(=O)(=O)N(CCN2CCOCC2)Cc2ccccc2)c1 [DNDI0003368294] | 5.27 | 9.12 | 9.06 | 227 | – | > 64 | > 64 | 3.4 | > 64
